Measurements published in the supplement of paper PMC10307832.

Key:
Test in all cases: relative viability (nuclei count vs DMSO), 5 days (fraction); higher = more cells survive
[1] = compound: C1=CC(=CC=C1NC(=S)NNC2=C(C=C(C=C2[N+](=O)[O-])C(F)(F)F)[N+](=O)[O-])F [Kobe2602] + CC(=O)c1c(C)c2cnc(Nc3ccc(N4CCNCC4)cn3)nc2n(C2CCCC2)c1=O [Palbociclib] (partner 0.5 µM)
Outline: (§1)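 Lung cancer cell lines were pin-tool dosed in 1536-well plates on the day after seeding, with either a lone drug or a fixed anchor-drug dose plus five library-drug doses (not always all listed) in √10 steps. Nuclei were counted on 4× images after 5 days. Relative viability is the ratio of treated-well to vehicle-well nuclei counts, with each value a median of duplicate plates.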

[2] = compound: COc1cc2nccc(Oc3ccc(NC(=O)C4(C(=O)Nc5ccc(F)cc5)CC4)cc3)c2cc1OC [Cabozantinib] + CC(C)C[C@H](NC(=O)[C@H](Cc1ccccc1)NC(=O)c1cnccn1)B(O)O [Bortezomib] (partner 0.002 µM)
Outline: as §1

[3] = compound: COc1cc2nccc(Oc3ccc(NC(=O)C4(C(=O)Nc5ccc(F)cc5)CC4)cc3)c2cc1OC [Cabozantinib] + COc1cc2c(Oc3ccc(NC(=O)C4(C(=O)Nc5ccc(F)cc5)CC4)cc3F)ccnc2cc1OCCCN1CCOCC1 [Foretinib] (partner 0.25 µM)
Outline: as §1

[4] = compound: COc1cc2nccc(Oc3ccc(NC(=O)C4(C(=O)Nc5ccc(F)cc5)CC4)cc3)c2cc1OC [Cabozantinib] + CS(=O)(=O)CCNCc1ccc(-c2ccc3ncnc(Nc4ccc(OCc5cccc(F)c5)c(Cl)c4)c3c2)o1 [Lapatinib] (partner 2 µM)
Outline: as §1

201T
relative viability ([1]; first compound 0.2 µM): 0.378
relative viability ([1]; first compound 0.6325 µM): 0.375
relative viability ([1]; first compound 2 µM): 0.351
relative viability ([1]; first compound 6.325 µM): 0.394
relative viability ([1]; first compound 20 µM): 0.322
relative viability ([2]; first compound 0.02 µM): 1.14
relative viability ([2]; first compound 0.06325 µM): 1.15
relative viability ([2]; first compound 0.2 µM): 1.05
relative viability ([2]; first compound 0.6325 µM): 1.08
relative viability ([2]; first compound 2 µM): 1.12
relative viability ([3]; first compound 0.06325 µM): 1.21
relative viability ([3]; first compound 0.2 µM): 1.05
relative viability ([3]; first compound 0.6325 µM): 1.05
relative viability ([3]; first compound 2 µM): 1.14
relative viability ([4]; first compound 0.02 µM): 1.02
relative viability ([4]; first compound 0.06325 µM): 1.14
relative viability ([4]; first compound 0.2 µM): 0.991
relative viability ([4]; first compound 0.6325 µM): 0.999
relative viability ([4]; first compound 2 µM): 1.08

A549
relative viability ([3]; first compound 0.02 µM): 1.09
relative viability ([3]; first compound 0.06325 µM): 1.17
relative viability ([3]; first compound 0.2 µM): 0.964
relative viability ([3]; first compound 0.6325 µM): 0.909
relative viability ([3]; first compound 2 µM): 0.942
relative viability ([4]; first compound 0.02 µM): 0.996
relative viability ([4]; first compound 0.06325 µM): 1.03
relative viability ([4]; first compound 0.2 µM): 0.872
relative viability ([4]; first compound 0.6325 µM): 0.926
relative viability ([4]; first compound 2 µM): 0.807

A-427
relative viability ([1]; first compound 0.2 µM): 0.593
relative viability ([1]; first compound 0.6325 µM): 0.571
relative viability ([1]; first compound 2 µM): 0.522
relative viability ([1]; first compound 6.325 µM): 0.606
relative viability ([1]; first compound 20 µM): 0.532
relative viability ([2]; first compound 0.02 µM): 1.03
relative viability ([2]; first compound 0.06325 µM): 0.969
relative viability ([2]; first compound 0.2 µM): 1.05
relative viability ([2]; first compound 0.6325 µM): 0.936
relative viability ([2]; first compound 2 µM): 0.988
relative viability ([3]; first compound 0.02 µM): 1.09
relative viability ([3]; first compound 0.06325 µM): 1.28
relative viability ([3]; first compound 0.2 µM): 0.89
relative viability ([3]; first compound 0.6325 µM): 0.967
relative viability ([3]; first compound 2 µM): 0.786
relative viability ([4]; first compound 0.02 µM): 1.1
relative viability ([4]; first compound 0.06325 µM): 1.11
relative viability ([4]; first compound 0.2 µM): 0.963
relative viability ([4]; first compound 0.6325 µM): 1.02
relative viability ([4]; first compound 2 µM): 1.08

ABC-1
relative viability ([1]; first compound 0.2 µM): 0.579
relative viability ([1]; first compound 0.6325 µM): 0.762
relative viability ([1]; first compound 2 µM): 0.559
relative viability ([1]; first compound 6.325 µM): 0.853
relative viability ([1]; first compound 20 µM): 0.739
relative viability ([2]; first compound 0.02 µM): 0.263
relative viability ([2]; first compound 0.06325 µM): 0.263
relative viability ([2]; first compound 0.2 µM): 0.294
relative viability ([2]; first compound 0.6325 µM): 0.351
relative viability ([2]; first compound 2 µM): 0.279
relative viability ([3]; first compound 0.02 µM): 1.15
relative viability ([3]; first compound 0.06325 µM): 1.13
relative viability ([3]; first compound 0.2 µM): 1.11
relative viability ([3]; first compound 0.6325 µM): 1
relative viability ([3]; first compound 2 µM): 0.932
relative viability ([4]; first compound 0.02 µM): 1.42
relative viability ([4]; first compound 0.06325 µM): 1.1
relative viability ([4]; first compound 0.2 µM): 1.11
relative viability ([4]; first compound 0.6325 µM): 1.1
relative viability ([4]; first compound 2 µM): 1.13

BEN
relative viability ([1]; first compound 0.2 µM): 0.502
relative viability ([1]; first compound 0.6325 µM): 0.497
relative viability ([1]; first compound 2 µM): 0.481
relative viability ([1]; first compound 6.325 µM): 0.483
relative viability ([1]; first compound 20 µM): 0.443
relative viability ([2]; first compound 0.02 µM): 0.679
relative viability ([2]; first compound 0.06325 µM): 1.08
relative viability ([2]; first compound 0.2 µM): 0.902
relative viability ([2]; first compound 0.6325 µM): 0.639
relative viability ([2]; first compound 2 µM): 0.795
relative viability ([3]; first compound 0.02 µM): 0.595
relative viability ([3]; first compound 0.06325 µM): 0.79
relative viability ([3]; first compound 0.2 µM): 0.708
relative viability ([3]; first compound 0.6325 µM): 0.787
relative viability ([3]; first compound 2 µM): 0.387
relative viability ([4]; first compound 0.02 µM): 0.702
relative viability ([4]; first compound 0.06325 µM): 0.814
relative viability ([4]; first compound 0.2 µM): 0.846
relative viability ([4]; first compound 0.6325 µM): 0.67
relative viability ([4]; first compound 2 µM): 0.63

CAL-12T
relative viability ([1]; first compound 0.2 µM): 0.515
relative viability ([1]; first compound 0.6325 µM): 0.6
relative viability ([1]; first compound 2 µM): 0.411
relative viability ([1]; first compound 6.325 µM): 0.408
relative viability ([1]; first compound 20 µM): 0.407
relative viability ([2]; first compound 0.02 µM): 0.876
relative viability ([2]; first compound 0.06325 µM): 1.25
relative viability ([2]; first compound 0.2 µM): 0.882
relative viability ([2]; first compound 2 µM): 1.06
relative viability ([3]; first compound 0.02 µM): 1.22
relative viability ([3]; first compound 0.06325 µM): 1.31
relative viability ([3]; first compound 0.2 µM): 1.17
relative viability ([3]; first compound 0.6325 µM): 1.08
relative viability ([3]; first compound 2 µM): 1.18
relative viability ([4]; first compound 0.02 µM): 0.708
relative viability ([4]; first compound 0.06325 µM): 0.653
relative viability ([4]; first compound 0.2 µM): 0.701
relative viability ([4]; first compound 2 µM): 0.529

COR-L23
relative viability ([1]; first compound 0.2 µM): 0.31
relative viability ([1]; first compound 0.6325 µM): 0.296
relative viability ([1]; first compound 2 µM): 0.275
relative viability ([1]; first compound 6.325 µM): 0.318
relative viability ([1]; first compound 20 µM): 0.333
relative viability ([2]; first compound 0.02 µM): 1.25
relative viability ([2]; first compound 0.06325 µM): 1
relative viability ([2]; first compound 0.2 µM): 1.01
relative viability ([2]; first compound 0.6325 µM): 1.06
relative viability ([2]; first compound 2 µM): 1.07
relative viability ([3]; first compound 0.02 µM): 0.978
relative viability ([3]; first compound 0.06325 µM): 1.1
relative viability ([3]; first compound 0.2 µM): 0.976
relative viability ([3]; first compound 0.6325 µM): 0.977
relative viability ([3]; first compound 2 µM): 0.95
relative viability ([4]; first compound 0.02 µM): 1.04
relative viability ([4]; first compound 0.06325 µM): 1.14
relative viability ([4]; first compound 0.2 µM): 0.947
relative viability ([4]; first compound 0.6325 µM): 1.12
relative viability ([4]; first compound 2 µM): 0.878

COR-L 105
relative viability ([1]; first compound 0.2 µM): 0.423
relative viability ([1]; first compound 0.6325 µM): 0.413
relative viability ([1]; first compound 2 µM): 0.422
relative viability ([1]; first compound 6.325 µM): 0.438
relative viability ([1]; first compound 20 µM): 0.383
relative viability ([2]; first compound 0.02 µM): 0.799
relative viability ([2]; first compound 0.06325 µM): 0.999
relative viability ([2]; first compound 0.6325 µM): 0.702
relative viability ([2]; first compound 2 µM): 0.837
relative viability ([3]; first compound 0.02 µM): 1.36
relative viability ([3]; first compound 0.06325 µM): 1.01
relative viability ([3]; first compound 0.6325 µM): 1.14
relative viability ([3]; first compound 2 µM): 0.969
relative viability ([4]; first compound 0.02 µM): 0.321
relative viability ([4]; first compound 0.06325 µM): 0.341
relative viability ([4]; first compound 0.6325 µM): 0.352
relative viability ([4]; first compound 2 µM): 0.372

Calu-6
relative viability ([2]; first compound 0.02 µM): 1.09
relative viability ([2]; first compound 0.06325 µM): 1.05
relative viability ([2]; first compound 0.2 µM): 1.04
relative viability ([2]; first compound 0.6325 µM): 1.04
relative viability ([2]; first compound 2 µM): 0.949
relative viability ([3]; first compound 0.02 µM): 1.04
relative viability ([3]; first compound 0.06325 µM): 0.876
relative viability ([3]; first compound 0.2 µM): 0.923
relative viability ([3]; first compound 0.6325 µM): 0.916
relative viability ([3]; first compound 2 µM): 0.811
relative viability ([4]; first compound 0.02 µM): 1.14
relative viability ([4]; first compound 0.06325 µM): 1.2
relative viability ([4]; first compound 0.2 µM): 1.15
relative viability ([4]; first compound 0.6325 µM): 0.986
relative viability ([4]; first compound 2 µM): 1.05
